The record followed here is ChEMBL document CHEMBL4130489, “Triclosan-caffeic acid hybrids: Synthesis, leishmanicidal, trypanocidal and cytotoxic activities” (Eur J Med Chem, 2017).

The term pEC50 denotes the negative decadic logarithm of the EC50, by convention in mol/L. Usually pIC50 stands for the IC50 on a negative log10 scale, so that one unit is a factor of ten. A high value points to a small IC50. The term MIC denotes the least concentration at which growth counts as inhibited. Read a high MIC as a need for much substance. As usually defined, the EC50 is the concentration giving half of the maximal effect. Higher therefore signals lower potency in that assay.

The nature of data set [1]: Cytotoxicity in human U937 cells assessed as reduction in cell viability incubated for 72 hrs by MTT assay. Format: cell-based, U-937. To be noted: read-out: LC50. (In general: Tetrazolium dyes change colour on reduction, which living cells bring about.)
Data set [2] has as its system Leishmania panamensis. The experiment in a line: Antileishmanial activity against GFP-tagged Leishmania panamensis MHOM/CO/87/UA140 intracellular amastigotes infected in human U937 cells incubated for 72 hrs by flow cytometry. Format: functional, organism-based. The conditions noted are these: MHOM/CO/87/UA140, U-937, 72 h. In general terms: Flow cytometry measures light scatter and fluorescence of single cells or particles in a stream.

Data set [3] has as its system Trypanosoma cruzi. The experiment in a line: Antitrypanosomal activity against Trypanosoma cruzi Tulahuen intracellular amastigotes transfected with beta-galactosidase infected in human U937 cells incubated for 72 hrs by spectrophotometry. Format: functional, organism-based. To be noted: U-937, 72 h.
Data set [4] in a line: Selectivity index, ratio of LC50 for cytotoxicity in human U937 cells to EC50 for antileishmanial activity against GFP-tagged Leishmania panamensis MHOM/CO/87/UA140 intracellular amastigotes infected in human U937 cells. Format: toxicity, cell-based.
A short description of data set [5]: Selectivity index, ratio of LC50 for cytotoxicity in human U937 cells to EC50 for antitrypanosomal activity against Trypanosoma cruzi Tulahuen intracellular amastigotes transfected with beta-galactosidase infected in human U937 cells. Format: toxicity, cell-based.
In the next data set the test system is Leishmania major. The experiment in a line: Antileishmanial activity against Leishmania major promastigotes. Format: functional, organism-based.
The next data set concerns Trypanosoma brucei. The experiment in a line: Antitrypanosomal activity against Trypanosoma brucei bloodstream forms. Format: functional.
For data set [6], the system named is Leishmania panamensis. The experiment in a line: Antileishmanial activity against GFP-tagged Leishmania panamensis MHOM/CO/87/UA140 amastigotes infected in human U937 cells incubated for 72 hrs by flow cytometry. Format: functional, organism-based. To be noted: MHOM/CO/87/UA140, U-937, 72 h.
Data set [7] can be described thus: Cytotoxicity in human U937 cells. To be noted: read-out: LC50 (the source's name). Format: cell-based, U-937.
The test system of data set [8] is Leishmania panamensis. The experiment in a line: Antileishmanial activity against Leishmania panamensis axenic amastigotes. Format: functional, organism-based.
In data set [9] the test system is Trypanosoma cruzi. The experiment in a line: Antitrypanosomal activity against Trypanosoma cruzi. Format: functional, organism-based.

pEC50, pIC50: −log10 of the molar value. Converted amounts (≈) assume the structure as drawn.

In the case of `O=C(/C=C/c1ccc(O)c(O)c1)OCCCCCCCCCCCCOc1cc(Cl)ccc1Oc1ccc(Cl)cc1Cl`, in data set [1], the CC50 at 72 h was 174 µM. Besides, the pEC50 is 4.37 in the data set with Leishmania panamensis [2] and 4.47 in the data set on Trypanosoma cruzi [3] (read-out: EC50). For the same molecule, the selectivity ratio worked out at 4.08 in data set [4] and 5.08 in data set [5].
For `CC1(C)C2CCC1(C)[C@H](OC(=O)/C=C/c1ccc(O)c(O)c1)C2` (some centres not stated), in the data set with Leishmania major, the pIC50 is 4.31.
Consider `COc1ccc(CCC(=O)OCCCOc2cc(Cl)ccc2Oc2ccc(Cl)cc2Cl)cc1OC`, for which, in [1], the CC50 at 72 h stood at 250 µM. Moreover, the pEC50 in the data set on Leishmania panamensis [2] is 4.40; in the data set on Trypanosoma cruzi [3] (read-out: EC50), 4.48. Besides, the selectivity ratio amounted to 6.2 in data set [4] and 7.49 in data set [5].
As for `O=C(/C=C/c1ccc(O)c(O)c1)OCCCCCCCCOc1cc(Cl)ccc1Oc1ccc(Cl)cc1Cl`, the CC50 at 72 h in data set [1] is 40.2 µM. Further, the pEC50 with Leishmania panamensis [2] is 4.89; with Trypanosoma cruzi [3] (read-out: EC50), 4.74. For the same molecule, the values for the selectivity ratio in [4] and in data set [5] were 3.11 and 2.19, respectively.
Turning to `O=C(Cn1ccnc1[N+](=O)[O-])NCc1ccccc1` [BENZNIDAZOLE], in the data set with Trypanosoma cruzi [3], the pEC50 is 4.39. For the same molecule, in data set [5], the selectivity ratio stood at 17.
For the molecule `C[C@@H]1[C@H](O)[C@@H](C)/C=C/C=C/C=C/C=C/C=C/C=C/C=C/[C@H](O[C@@H]2O[C@H](C)[C@@H](O)[C@H](N)[C@@H]2O)C[C@@H]2O[C@](O)(C[C@@H](O)C[C@@H](O)[C@H](O)CC[C@@H](O)C[C@@H](O)CC(=O)O[C@H]1C)C[C@H](O)[C@H]2C(=O)O` [AMPHOTERICIN B], the selectivity ratio in [4] amounted to 842.
`CC(C)CCOC(=O)/C=C/c1ccc(O)c(O)c1`: inhibition of growth in the data set on Trypanosoma brucei (MIC) required 0.31 µg/mL (≈ 1.24 µM).
As for `O=C(O)/C=C/c1ccc(O)c(O)c1` [CAFFEIC ACID], the CC50 at 72 h in data set [1] is 1110 µM. Moreover, the pEC50 was 2.96 in the data set on Leishmania panamensis [2] and 3.80 with Trypanosoma cruzi [3] (read-out: EC50). For the same molecule, the figures for the selectivity ratio in [4] and in data set [5] were above 1 and above 7.07, respectively.
For `O=C(/C=C/c1ccc(O)c(O)c1)OCCCCOc1cc(Cl)ccc1Oc1ccc(Cl)cc1Cl`, the CC50 at 72 h in data set [1] was determined as 12 µM. The values for the pEC50 with Leishmania panamensis [2] and with Trypanosoma cruzi [3] (read-out: EC50) were 5.42 and 5.08, respectively. The selectivity ratio in data set [4] is 3.16; in [5], 1.46.
`COc1ccc(/C=C/C(=O)OCCCOc2cc(Cl)ccc2Oc2ccc(Cl)cc2Cl)cc1OC`: the CC50 at 72 h in data set [1] is above 372 µM. The values for the pEC50 in the data set on Leishmania panamensis [2] and in the data set on Trypanosoma cruzi [3] (read-out: EC50) were 4.42 and below 4.43, respectively. The selectivity ratio in data set [4] was above 9.77; in data set [5], below 10.
As for `O=C(/C=C/c1ccc(O)c(O)c1)OCCCCCCCCCOc1cc(Cl)ccc1Oc1ccc(Cl)cc1Cl`, the CC50 at 72 h in [1] worked out at 3.62 µM. The pEC50 in the data set with Leishmania panamensis [2] is 4.52; in the data set with Trypanosoma cruzi [3] (read-out: EC50), 4.38. The selectivity ratio in data set [4] is 0.12; in data set [5], 0.09.
In the case of `COc1ccc(/C=C/C(=O)c2ccc(OCCCOc3cc(Cl)ccc3Oc3ccc(Cl)cc3Cl)cc2)cc1OC`, the response with Leishmania panamensis [6] was half-maximal at 9.4 µg/mL (≈ 15.3 µM) (EC50). In data set [7], the CC50 is above 200 µg/mL.
With `COc1ccc(/C=C/C(=O)c2ccc(OCCCCCOc3cc(Cl)ccc3Oc3ccc(Cl)cc3Cl)cc2)cc1OC`, the midpoint of the response in the data set with Leishmania panamensis [6], the EC50, lay at 13.5 µg/mL (≈ 21 µM). Further, the CC50 in [7] was above 200 µg/mL.
Turning to `COc1ccc(/C=C/C(=O)c2ccc(OCCCCOc3cc(Cl)ccc3Oc3ccc(Cl)cc3Cl)cc2)cc1OC`, the EC50 in the data set on Leishmania panamensis [6] turned out to be 10.2 µg/mL (≈ 16.2 µM). The CC50 in [7] is above 200 µg/mL.
Consider `O=C(/C=C/c1ccc(O)c(O)c1)OCCCCCCCOc1cc(Cl)ccc1Oc1ccc(Cl)cc1Cl`, for which the CC50 at 72 h in data set [1] was determined as 20 µM. Moreover, the pEC50 in the data set with Leishmania panamensis [2] is 4.93; with Trypanosoma cruzi [3] (read-out: EC50), 5.06. Besides, the results for the selectivity ratio in [4] and in [5] were 1.72 and 2.29, respectively.
With `COc1ccc(/C=C/C(=O)OCCCCOc2cc(Cl)ccc2Oc2ccc(Cl)cc2Cl)cc1OC`, the CC50 at 72 h in data set [1] turned out to be 73.4 µM. The figures for the pEC50 with Leishmania panamensis [2] and in the data set on Trypanosoma cruzi [3] (read-out: EC50) were 4.27 and 4.37, respectively. Also, the selectivity ratio in data set [4] came to 1.38; in [5], 1.72.
Turning to `COc1ccc(/C=C/C(=O)OCCCCCCCCCOc2cc(Cl)ccc2Oc2ccc(Cl)cc2Cl)cc1OC`, the CC50 at 72 h in data set [1] came to 107 µM. Besides, the pEC50 in the data set with Leishmania panamensis [2] is 4.31; with Trypanosoma cruzi [3] (read-out: EC50), 4.48. Further, the selectivity ratio in data set [4] was 2.21; in [5], 3.24.
As to `Oc1cc(Cl)ccc1Oc1ccc(Cl)cc1Cl` [TRICLOSAN], the CC50 at 72 h in data set [1] is […]. Moreover, in the data set with Trypanosoma cruzi [3] (read-out: EC50), the pEC50 is 4.31. For the same molecule, the selectivity ratio in data set [4] was determined as […]; in data set [5], […].
`O=C(/C=C/c1ccc(O)c(O)c1)OCCCOc1cc(Cl)ccc1Oc1ccc(Cl)cc1Cl`: the CC50 at 72 h in data set [1] is above 392 µM. Moreover, the figures for the pEC50 in the data set with Leishmania panamensis [2] and in the data set on Trypanosoma cruzi [3] (read-out: EC50) were 4.61 and 4.28, respectively. The selectivity ratio in [4] is above 16.1; in data set [5], above 7.48.
On to `CCCCCCCCOC(=O)/C=C/c1ccc(O)c(O)c1`, for which the pEC50 in the data set on Leishmania panamensis [8] is 6.17.
In the case of `COc1ccc(/C=C/C(=O)OCCCCCCCOc2cc(Cl)ccc2Oc2ccc(Cl)cc2Cl)cc1OC`, the CC50 at 72 h in data set [1] amounted to 337 µM. Further, the pEC50 is 4.00 with Leishmania panamensis [2] and 4.56 with Trypanosoma cruzi [3] (read-out: EC50). The selectivity ratio was above 3.4 in data set [4] and above 12.3 in data set [5].
For `O=C(/C=C/c1ccc(O)c(O)c1)OCCCCCOc1cc(Cl)ccc1Oc1ccc(Cl)cc1Cl`, the CC50 at 72 h in data set [1] was found to be 8.18 µM. For the same molecule, the pEC50 is 4.82 with Leishmania panamensis [2] and 4.53 in the data set on Trypanosoma cruzi [3] (read-out: EC50). Further, the values for the selectivity ratio in data set [4] and in data set [5] were 0.53 and 0.28, respectively.
In turn, `O=C(/C=C/c1ccc(O)c(O)c1)O[C@@H]1[C@H](O)C[C@@](O)(C(=O)O)C[C@H]1OC(=O)/C=C/c1ccc(O)c(O)c1` had a pIC50 with Trypanosoma cruzi [9] of 3.54.
